In ChEMBL document CHEMBL5465560, “Selectivity Literature for EUbOPEN Chemogenomic Library” (2024):

Tests used:
[1] = target: Serine/threonine-protein kinase OSR1 (Homo sapiens) (UniProt O95747); test: Selectivity interaction (KinomeScan (DiscoverX)) EUB0001049a OXSR1; settings: at 1 µM
[2] = target: Protein kinase C gamma type (Homo sapiens) (UniProt P05129); test: Selectivity interaction (Millipore kinase profiler) EUB0000124b PRKCG; settings: at 10 µM
[3] = target: Protein kinase C theta type (Homo sapiens, UniProt Q04759); test: Selectivity interaction (Millipore kinase profiler) EUB0000124b PRKCQ; settings: at 10 µM
[4] = target: Serine/threonine-protein kinase MARK1 (Homo sapiens) (UniProt Q9P0L2); test: Selectivity interaction (KinomeScan (DiscoverX)) EUB0000229b MARK1; settings: at 10 µM
[5] = target: Testis-specific serine/threonine-protein kinase 4 (Homo sapiens) (UniProt Q6SA08); test: Selectivity interaction (Kinase panel (Eurofins)) EUB0001564a TSSK4; settings: at 1 µM
SRSF protein kinase 1 = SRSF protein kinase 1 (Homo sapiens, UniProt Q96SB4); test: Selectivity interaction (Kinase panel (DSF assay)) EUB0001559a SRPK1
[6] = target: Cyclin-dependent kinase-like 1 (Homo sapiens) (UniProt Q00532); test: Selectivity interaction (Kinase panel (DSF assay)) EUB0001559a CDKL1
[7] = target: Tyrosine-protein kinase HCK (Homo sapiens) (UniProt P08631); test: Selectivity interaction (ActivX KiNativ screen (kinase selectivity in THP-1 cell lysates)) EUB0000639a HCK; type: subcellular; settings: lysate, at 0.2 µM
[8] = target: T1, Serine/threonine-protein kinase Nek9 (Homo sapiens) (UniProt Q8TD19); test: Selectivity interaction (ActivX KiNativ screen (kinase selectivity in THP-1 cell lysates)) EUB0000639a NEK9; type: subcellular; settings: lysate, at 0.2 µM
T1 sequence (whole entry): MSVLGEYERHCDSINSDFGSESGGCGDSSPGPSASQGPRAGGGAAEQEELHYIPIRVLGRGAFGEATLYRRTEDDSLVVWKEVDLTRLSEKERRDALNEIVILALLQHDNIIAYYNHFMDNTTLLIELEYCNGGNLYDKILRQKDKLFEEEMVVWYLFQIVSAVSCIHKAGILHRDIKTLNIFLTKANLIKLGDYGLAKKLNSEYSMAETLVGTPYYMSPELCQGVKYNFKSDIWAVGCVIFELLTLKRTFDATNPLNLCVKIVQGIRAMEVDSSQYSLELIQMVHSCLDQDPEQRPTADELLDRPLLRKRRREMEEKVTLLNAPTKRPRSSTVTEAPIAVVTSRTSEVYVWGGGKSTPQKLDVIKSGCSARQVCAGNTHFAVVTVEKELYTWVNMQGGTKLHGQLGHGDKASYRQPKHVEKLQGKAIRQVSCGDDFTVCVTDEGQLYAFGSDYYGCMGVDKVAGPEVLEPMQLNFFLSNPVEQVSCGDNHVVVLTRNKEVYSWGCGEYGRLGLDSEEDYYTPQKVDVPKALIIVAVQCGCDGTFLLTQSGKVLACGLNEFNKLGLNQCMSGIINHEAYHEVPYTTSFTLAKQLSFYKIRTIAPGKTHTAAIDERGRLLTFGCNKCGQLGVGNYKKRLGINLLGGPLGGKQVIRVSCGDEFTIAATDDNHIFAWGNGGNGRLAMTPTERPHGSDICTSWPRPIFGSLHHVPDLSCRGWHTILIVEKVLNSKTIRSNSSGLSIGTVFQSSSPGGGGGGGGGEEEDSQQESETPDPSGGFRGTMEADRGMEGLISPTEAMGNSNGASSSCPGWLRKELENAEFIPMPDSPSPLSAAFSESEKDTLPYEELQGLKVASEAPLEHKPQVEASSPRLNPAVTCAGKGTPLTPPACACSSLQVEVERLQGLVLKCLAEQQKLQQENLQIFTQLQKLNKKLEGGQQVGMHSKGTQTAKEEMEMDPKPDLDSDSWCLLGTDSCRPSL

[9] = target: Mitogen-activated protein kinase 10 (Homo sapiens, UniProt P53779); test: Selectivity interaction (Kinase panel (enzymatic assay)) EUB0000595a MAPK10
[10] = target: Vascular endothelial growth factor receptor 3 (Homo sapiens, UniProt P35916); test: Selectivity interaction (KinomeScan (DiscoverX)) EUB0000595a FLT4; settings: at 10 µM
[11] = target: Calcium/calmodulin-dependent protein kinase type II subunit delta (Homo sapiens) (UniProt Q13557); test: Selectivity interaction (Ambit KINOMEscan and KiNATiv profiling in Jurkat cells) EUB0000090b CAMK2D; type: cell-based; settings: at 1 µM
[12] = target: Dual specificity protein kinase CLK4 (Homo sapiens, UniProt Q9HAZ1); test: Selectivity interaction (Ambit KINOMEscan and KiNATiv profiling in Jurkat cells) EUB0000090b CLK4; type: cell-based; settings: at 1 µM
[13] = target: Cyclin-dependent kinase 2 (Homo sapiens, UniProt P24941); settings: at 10 µM
[14] = target: T2, Cyclin-dependent kinase 11A (Homo sapiens) (UniProt Q9UQ88); test: Selectivity interaction (ActivX KiNativ screen (ex vivo kinase selectivity in human PBMCs)) EUB0001619a CDK11A; type: cell-based; settings: PBMC, at 1 µM
T2 sequence (whole entry): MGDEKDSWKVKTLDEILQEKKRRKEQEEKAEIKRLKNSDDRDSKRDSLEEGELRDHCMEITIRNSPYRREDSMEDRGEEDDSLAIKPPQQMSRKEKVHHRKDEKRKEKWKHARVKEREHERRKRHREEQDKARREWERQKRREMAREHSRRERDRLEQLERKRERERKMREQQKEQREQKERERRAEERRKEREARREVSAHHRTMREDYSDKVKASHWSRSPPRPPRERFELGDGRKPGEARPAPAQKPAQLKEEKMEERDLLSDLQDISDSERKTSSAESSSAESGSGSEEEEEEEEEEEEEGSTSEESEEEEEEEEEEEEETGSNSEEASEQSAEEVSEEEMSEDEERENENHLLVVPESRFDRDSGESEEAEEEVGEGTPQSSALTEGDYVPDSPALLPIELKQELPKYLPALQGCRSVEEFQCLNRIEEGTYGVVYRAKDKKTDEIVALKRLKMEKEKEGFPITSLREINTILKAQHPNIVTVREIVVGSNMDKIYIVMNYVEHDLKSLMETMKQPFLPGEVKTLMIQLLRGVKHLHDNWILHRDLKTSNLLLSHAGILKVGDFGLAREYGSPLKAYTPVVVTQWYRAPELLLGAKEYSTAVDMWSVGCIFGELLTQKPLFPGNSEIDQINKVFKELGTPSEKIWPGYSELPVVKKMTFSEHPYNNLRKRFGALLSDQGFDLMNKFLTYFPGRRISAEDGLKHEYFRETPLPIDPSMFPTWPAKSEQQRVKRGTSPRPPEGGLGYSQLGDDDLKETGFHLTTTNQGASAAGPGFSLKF

[15] = target: Serine/threonine-protein kinase WNK4 (Homo sapiens) (UniProt Q96J92); test: Selectivity interaction (ActivX KiNativ screen (ex vivo kinase selectivity in human PBMCs)) EUB0001619a WNK4; type: cell-based; settings: PBMC, at 1 µM
[16] = target: Hepatocyte growth factor receptor (Homo sapiens, UniProt P08581); settings: at 1 µM

Serine/threonine-protein kinase OSR1 (Homo sapiens), sequence (O95747 2-527 limits assumed): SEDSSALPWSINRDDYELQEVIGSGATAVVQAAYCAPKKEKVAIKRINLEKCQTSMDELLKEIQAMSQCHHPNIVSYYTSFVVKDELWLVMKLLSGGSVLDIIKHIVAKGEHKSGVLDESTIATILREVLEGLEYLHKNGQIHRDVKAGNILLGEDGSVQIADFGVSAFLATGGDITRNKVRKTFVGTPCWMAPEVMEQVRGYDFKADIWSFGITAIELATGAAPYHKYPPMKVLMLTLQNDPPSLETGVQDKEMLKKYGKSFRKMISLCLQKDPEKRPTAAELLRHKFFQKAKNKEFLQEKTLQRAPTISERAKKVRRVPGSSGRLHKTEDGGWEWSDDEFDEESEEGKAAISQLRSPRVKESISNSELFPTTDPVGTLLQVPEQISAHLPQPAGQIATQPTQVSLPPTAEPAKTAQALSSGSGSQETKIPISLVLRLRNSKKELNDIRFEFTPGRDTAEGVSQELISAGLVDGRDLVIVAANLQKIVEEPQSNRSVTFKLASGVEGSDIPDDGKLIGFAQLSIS
Cyclin-dependent kinase-like 1 (Homo sapiens), sequence (Q00532 whole entry): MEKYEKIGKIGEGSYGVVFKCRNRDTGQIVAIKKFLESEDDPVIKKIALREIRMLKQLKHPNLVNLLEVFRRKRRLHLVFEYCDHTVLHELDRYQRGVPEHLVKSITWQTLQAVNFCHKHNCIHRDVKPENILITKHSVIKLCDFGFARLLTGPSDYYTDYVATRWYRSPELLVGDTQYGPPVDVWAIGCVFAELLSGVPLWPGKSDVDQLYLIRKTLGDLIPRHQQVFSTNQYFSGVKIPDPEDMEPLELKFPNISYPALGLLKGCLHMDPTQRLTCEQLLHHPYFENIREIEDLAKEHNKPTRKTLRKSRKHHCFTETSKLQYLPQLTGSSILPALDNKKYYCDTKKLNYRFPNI
Mitogen-activated protein kinase 10, sequence (P53779 whole entry): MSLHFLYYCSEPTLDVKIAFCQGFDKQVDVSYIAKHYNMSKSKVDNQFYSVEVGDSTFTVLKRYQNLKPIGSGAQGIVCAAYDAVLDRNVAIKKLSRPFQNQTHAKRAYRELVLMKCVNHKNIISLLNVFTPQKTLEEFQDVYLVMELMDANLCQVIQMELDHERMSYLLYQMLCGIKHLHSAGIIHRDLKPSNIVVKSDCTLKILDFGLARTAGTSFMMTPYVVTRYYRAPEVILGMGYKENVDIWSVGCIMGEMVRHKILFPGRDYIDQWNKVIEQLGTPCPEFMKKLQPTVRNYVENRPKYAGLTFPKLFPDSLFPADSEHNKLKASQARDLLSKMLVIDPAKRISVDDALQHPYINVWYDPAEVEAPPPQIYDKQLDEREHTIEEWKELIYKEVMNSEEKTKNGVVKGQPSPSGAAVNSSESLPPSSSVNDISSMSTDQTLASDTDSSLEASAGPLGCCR
Testis-specific serine/threonine-protein kinase 4 (Homo sapiens), sequence (Q6SA08 whole entry): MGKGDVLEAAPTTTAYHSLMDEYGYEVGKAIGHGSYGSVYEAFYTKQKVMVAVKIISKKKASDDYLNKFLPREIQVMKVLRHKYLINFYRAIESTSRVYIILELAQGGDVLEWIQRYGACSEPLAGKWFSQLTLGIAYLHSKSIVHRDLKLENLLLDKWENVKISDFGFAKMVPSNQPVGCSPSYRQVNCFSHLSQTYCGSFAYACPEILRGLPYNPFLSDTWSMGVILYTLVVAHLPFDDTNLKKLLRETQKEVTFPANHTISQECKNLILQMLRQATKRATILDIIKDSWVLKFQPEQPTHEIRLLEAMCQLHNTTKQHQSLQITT
Tyrosine-protein kinase HCK (Homo sapiens), sequence (P08631 2-526 limits assumed): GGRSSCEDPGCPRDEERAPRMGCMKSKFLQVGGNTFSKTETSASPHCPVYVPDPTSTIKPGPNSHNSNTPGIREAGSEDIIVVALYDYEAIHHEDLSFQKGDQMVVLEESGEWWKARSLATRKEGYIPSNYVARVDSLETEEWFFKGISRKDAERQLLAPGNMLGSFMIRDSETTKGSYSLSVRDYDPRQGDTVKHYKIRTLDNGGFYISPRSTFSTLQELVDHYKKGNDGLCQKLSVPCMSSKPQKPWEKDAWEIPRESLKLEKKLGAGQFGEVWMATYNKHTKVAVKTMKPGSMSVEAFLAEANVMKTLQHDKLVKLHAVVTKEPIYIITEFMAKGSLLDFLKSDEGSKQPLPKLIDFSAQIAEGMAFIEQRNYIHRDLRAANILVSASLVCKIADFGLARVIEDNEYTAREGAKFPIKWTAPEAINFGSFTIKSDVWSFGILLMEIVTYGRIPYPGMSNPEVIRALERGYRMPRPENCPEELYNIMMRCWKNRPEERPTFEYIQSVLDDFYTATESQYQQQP
Vascular endothelial growth factor receptor 3, sequence (P35916 whole entry): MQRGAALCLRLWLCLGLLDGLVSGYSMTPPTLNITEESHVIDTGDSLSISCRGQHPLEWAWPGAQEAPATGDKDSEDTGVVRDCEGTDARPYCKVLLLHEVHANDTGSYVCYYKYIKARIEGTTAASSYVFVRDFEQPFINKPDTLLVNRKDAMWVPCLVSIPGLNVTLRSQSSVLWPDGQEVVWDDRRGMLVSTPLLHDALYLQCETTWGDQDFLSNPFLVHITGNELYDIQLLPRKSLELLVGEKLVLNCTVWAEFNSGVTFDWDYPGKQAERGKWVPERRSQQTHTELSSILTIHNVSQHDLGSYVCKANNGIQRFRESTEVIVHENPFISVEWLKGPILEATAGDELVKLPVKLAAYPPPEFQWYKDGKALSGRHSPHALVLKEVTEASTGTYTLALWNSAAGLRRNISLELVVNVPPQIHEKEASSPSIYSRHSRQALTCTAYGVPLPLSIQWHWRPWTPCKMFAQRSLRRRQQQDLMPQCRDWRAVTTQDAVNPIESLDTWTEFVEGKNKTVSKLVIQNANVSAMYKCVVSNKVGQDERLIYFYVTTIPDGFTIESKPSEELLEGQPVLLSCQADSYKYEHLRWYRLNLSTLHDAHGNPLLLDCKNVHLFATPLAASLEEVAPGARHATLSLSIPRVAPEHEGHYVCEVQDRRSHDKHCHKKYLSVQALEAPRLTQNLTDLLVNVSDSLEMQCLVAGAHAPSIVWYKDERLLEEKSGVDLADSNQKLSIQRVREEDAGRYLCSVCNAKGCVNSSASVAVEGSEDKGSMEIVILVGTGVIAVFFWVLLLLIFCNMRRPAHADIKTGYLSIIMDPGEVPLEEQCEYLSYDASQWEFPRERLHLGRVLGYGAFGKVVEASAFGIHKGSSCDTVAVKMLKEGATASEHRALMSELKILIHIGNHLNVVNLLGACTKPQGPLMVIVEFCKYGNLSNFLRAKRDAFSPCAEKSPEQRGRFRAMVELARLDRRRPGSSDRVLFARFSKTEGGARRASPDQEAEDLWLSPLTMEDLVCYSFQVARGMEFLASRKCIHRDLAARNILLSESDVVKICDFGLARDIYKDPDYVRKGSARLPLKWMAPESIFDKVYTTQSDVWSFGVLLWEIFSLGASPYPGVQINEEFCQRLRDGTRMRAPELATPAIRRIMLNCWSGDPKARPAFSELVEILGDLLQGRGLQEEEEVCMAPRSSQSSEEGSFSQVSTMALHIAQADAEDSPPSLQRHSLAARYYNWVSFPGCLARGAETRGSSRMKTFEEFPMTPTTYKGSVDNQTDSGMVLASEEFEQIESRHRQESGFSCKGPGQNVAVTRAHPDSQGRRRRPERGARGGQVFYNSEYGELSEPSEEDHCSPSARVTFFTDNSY
Serine/threonine-protein kinase WNK4 (Homo sapiens), sequence (Q96J92 whole entry): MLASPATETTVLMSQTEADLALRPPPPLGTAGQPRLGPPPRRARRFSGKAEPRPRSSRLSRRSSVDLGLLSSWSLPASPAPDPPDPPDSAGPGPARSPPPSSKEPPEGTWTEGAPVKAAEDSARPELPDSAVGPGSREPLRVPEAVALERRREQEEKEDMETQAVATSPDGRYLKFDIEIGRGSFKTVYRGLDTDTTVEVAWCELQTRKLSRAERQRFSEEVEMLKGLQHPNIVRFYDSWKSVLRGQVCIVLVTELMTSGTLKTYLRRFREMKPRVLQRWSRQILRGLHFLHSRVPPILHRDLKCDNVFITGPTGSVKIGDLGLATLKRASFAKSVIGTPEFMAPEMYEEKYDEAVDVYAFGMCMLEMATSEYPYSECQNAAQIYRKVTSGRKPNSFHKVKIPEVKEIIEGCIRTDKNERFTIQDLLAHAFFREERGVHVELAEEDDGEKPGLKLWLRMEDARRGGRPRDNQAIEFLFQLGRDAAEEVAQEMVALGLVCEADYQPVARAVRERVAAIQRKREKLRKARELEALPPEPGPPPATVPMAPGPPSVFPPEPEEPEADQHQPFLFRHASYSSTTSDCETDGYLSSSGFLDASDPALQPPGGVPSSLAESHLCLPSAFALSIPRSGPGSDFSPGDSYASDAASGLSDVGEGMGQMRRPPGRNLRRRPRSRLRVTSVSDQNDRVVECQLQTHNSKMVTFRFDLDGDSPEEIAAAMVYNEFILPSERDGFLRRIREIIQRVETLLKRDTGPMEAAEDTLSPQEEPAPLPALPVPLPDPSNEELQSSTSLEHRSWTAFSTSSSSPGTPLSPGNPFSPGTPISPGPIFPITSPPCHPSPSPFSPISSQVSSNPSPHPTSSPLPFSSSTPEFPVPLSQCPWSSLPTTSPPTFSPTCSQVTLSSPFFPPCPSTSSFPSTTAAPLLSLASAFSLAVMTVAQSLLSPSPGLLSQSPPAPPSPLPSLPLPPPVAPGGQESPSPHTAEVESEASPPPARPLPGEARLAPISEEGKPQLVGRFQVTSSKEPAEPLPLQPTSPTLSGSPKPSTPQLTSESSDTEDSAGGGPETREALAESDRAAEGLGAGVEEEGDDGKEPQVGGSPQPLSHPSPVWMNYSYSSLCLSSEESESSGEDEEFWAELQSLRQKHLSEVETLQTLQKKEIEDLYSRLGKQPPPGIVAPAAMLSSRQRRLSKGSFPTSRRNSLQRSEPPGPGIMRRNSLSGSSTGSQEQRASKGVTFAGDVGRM

Q: How did the % of control [1] turn out when COc1cc(Nc2nc(C)cc(-c3cnn4nc(OC)ccc34)n2)cc(C(F)(F)F)c1 was run?
A: Its % of control is 83%.

Q: How did the % of control [2] turn out when CC(=O)Nc1cccc(-n2c(=O)n(C3CC3)c(=O)c3c(Nc4ccc(I)cc4F)n(C)c(=O)c(C)c32)c1 was run?
A: Its % of control is 107%.

Q: And the % of control [3]?
A: Its % of control is 114%.

Q: For COc1cc(N(C)c2ccnc3ccc(C(F)(F)F)cc23)cc(OC)c1OC, which % binding [4] is on record?
A: Its % binding is 98%.

Q: Which % of inhibition [5] does the source give for CC[C@@H](Nc1c(C#N)c(-c2ccc(-c3cccc(C)c3F)cc2)nc2cnccc12)C(=O)O [BAY-091] here?
A: The % of inhibition was 24%.

Q: Which dTM (SRSF protein kinase 1) does the source give for CN(C(=O)c1cnn2cccnc12)c1cc2c(cc1N1CCOCC1)C(=O)N(C[C@@H](F)C(C)(C)O)C2 here?
A: Its dTM is 0.2 K.

Q: What about the dTM [6] of the same compound?
A: Its dTM is 1.2 K.

Q: Which % of inhibition [7] does the source give for CC[C@@H]1[C@H](F)C(=O)N[C@@H]1COc1nccc2cc(C(N)=O)c(OC)cc12 [ZIMLOVISERTIB] here?
A: Its % of inhibition is -32.6%.

Q: What about the % of inhibition [8] of the same compound?
A: Its % of inhibition is 8.3%.

Q: Which IC50 [9] does the source give for COCC(=O)NC/C=C/c1ccc2ncnc(Nc3ccc(Oc4ccc(C)nc4)c(C)c3)c2c1 [CP-724714] here?
A: Its IC50 is over 10 µM.

Q: What about the % of control [10] of the same compound?
A: The % of control was 98%.

Q: What does the source list for CN(C)C/C=C/C(=O)Nc1ccc(C(=O)N2CCCC(Nc3ncc(Cl)c(-c4c[nH]c5ccccc45)n3)C2)cc1 (configuration not stated)?
A: % of control [11]: 88%; % of control [12]: 73%

Q: Cc1cc([C@@H](C)Nc2ccccc2C(=O)O)c2nc(N3CCOCC3)cc(=O)n2c1 [AZD-6482] was tested. Which % of control [13] did it give?
A: The % of control was 93%.

Q: Which % of inhibition [14] does the source give for N#Cc1cccc(-c2c[nH]c3ncnc(N4CCOCC4)c23)c1 here?
A: Its % of inhibition is 36%.

Q: What about the % of inhibition [15] of the same compound?
A: Its % of inhibition is -1%.

Q: With Cc1ccc(-c2ccc3c(ccc4sc5c(c43)NC[C@@H](C)NC5=O)n2)cn1 as the compound, how does the % of inhibition [16] read?
A: The % of inhibition was 41%.
